Patent publication US20220009920A1 (GB005, Inc., priority 2020, published 2022)

Columns and labels:
Experiment in all cases: Large panel kinase profiling
Type in all cases: biochemical
Conditions in all cases: 1 μM test article, 1 mM ATP
[1] = biological target: EIF2AK4/GCN2 (Homo sapiens, UniProt Q9P2K8)
How it was run: (§1)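 One compound concentration (1 μM) was screened against each kinase at 1 mM ATP using PhosphoSens CSox-Sensor detection, at 30° C., with fluorescence read every 1 min (Ex 360 nm/Em 485 nm).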

[2] = biological target: T1, HIPK4 (Homo sapiens, UniProt Q8NE63)
T1 construct: AssayQuant Technologies, Inc. (service provider)
T1 sequence (Q8NE63 1-616): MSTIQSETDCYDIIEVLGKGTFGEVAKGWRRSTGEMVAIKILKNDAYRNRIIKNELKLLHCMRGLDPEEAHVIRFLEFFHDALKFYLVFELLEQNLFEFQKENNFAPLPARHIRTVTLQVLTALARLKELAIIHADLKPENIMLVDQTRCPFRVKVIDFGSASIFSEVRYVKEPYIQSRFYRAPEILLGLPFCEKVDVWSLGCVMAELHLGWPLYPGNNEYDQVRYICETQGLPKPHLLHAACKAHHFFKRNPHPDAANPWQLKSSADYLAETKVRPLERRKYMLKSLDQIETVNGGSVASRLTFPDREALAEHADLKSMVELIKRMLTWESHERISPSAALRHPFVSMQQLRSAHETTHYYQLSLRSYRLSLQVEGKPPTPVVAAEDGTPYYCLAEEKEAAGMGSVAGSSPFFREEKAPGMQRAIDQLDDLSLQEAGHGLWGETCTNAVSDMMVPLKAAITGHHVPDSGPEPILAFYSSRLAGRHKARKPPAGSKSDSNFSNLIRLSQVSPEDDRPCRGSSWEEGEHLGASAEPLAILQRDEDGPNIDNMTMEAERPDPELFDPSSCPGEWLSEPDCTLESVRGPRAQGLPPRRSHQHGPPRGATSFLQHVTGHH
How it was run: as §1

[3] = biological target: T2, PRKG1 (Homo sapiens, UniProt Q13976)
T2 sequence (Q13976 1-671): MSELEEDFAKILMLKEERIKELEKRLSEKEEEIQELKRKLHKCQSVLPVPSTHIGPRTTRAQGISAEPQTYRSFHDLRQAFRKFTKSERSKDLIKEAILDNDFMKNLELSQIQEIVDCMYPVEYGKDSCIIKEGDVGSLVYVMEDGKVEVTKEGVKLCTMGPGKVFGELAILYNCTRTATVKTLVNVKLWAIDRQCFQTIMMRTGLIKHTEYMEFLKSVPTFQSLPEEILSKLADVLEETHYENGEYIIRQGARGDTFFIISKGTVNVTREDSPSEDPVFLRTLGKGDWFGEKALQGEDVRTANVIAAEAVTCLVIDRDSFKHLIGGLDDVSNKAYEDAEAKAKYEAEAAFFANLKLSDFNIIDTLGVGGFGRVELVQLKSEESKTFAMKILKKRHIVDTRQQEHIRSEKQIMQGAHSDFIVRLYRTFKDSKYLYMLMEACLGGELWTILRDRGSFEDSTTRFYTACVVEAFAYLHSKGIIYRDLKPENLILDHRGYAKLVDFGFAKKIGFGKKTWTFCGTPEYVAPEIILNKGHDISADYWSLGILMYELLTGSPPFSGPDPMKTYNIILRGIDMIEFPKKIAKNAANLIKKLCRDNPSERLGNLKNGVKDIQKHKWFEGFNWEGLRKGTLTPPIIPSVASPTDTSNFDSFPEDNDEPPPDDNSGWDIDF
How it was run: as §1

[4] = biological target: RPS6KA1/RSK1 (Homo sapiens, UniProt Q15418)
Chain of RPS6KA1/RSK1 (Q15418 whole entry): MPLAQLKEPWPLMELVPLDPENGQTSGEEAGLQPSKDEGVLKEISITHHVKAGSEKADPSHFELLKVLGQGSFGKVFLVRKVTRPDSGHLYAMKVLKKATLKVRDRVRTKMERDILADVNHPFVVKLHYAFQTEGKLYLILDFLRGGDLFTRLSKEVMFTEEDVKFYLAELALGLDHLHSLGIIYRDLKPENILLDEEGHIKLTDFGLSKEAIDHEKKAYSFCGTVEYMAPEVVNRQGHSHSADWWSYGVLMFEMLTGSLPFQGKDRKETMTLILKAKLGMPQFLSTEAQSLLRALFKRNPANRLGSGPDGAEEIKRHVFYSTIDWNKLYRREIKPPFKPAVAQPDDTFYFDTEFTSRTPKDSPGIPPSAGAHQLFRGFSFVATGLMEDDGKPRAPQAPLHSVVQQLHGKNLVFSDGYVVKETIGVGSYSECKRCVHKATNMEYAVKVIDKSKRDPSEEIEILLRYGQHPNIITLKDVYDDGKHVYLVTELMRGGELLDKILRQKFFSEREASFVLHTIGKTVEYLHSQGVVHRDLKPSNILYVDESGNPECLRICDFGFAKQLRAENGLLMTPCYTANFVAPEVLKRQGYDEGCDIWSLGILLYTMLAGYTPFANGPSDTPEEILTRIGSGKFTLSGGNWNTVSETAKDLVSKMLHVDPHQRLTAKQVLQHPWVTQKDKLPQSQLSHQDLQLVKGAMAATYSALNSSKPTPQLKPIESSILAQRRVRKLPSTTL
How it was run: as §1

[5] = biological target: ABL1 (Homo sapiens, UniProt P00519)
Chain of ABL1 (P00519 whole entry): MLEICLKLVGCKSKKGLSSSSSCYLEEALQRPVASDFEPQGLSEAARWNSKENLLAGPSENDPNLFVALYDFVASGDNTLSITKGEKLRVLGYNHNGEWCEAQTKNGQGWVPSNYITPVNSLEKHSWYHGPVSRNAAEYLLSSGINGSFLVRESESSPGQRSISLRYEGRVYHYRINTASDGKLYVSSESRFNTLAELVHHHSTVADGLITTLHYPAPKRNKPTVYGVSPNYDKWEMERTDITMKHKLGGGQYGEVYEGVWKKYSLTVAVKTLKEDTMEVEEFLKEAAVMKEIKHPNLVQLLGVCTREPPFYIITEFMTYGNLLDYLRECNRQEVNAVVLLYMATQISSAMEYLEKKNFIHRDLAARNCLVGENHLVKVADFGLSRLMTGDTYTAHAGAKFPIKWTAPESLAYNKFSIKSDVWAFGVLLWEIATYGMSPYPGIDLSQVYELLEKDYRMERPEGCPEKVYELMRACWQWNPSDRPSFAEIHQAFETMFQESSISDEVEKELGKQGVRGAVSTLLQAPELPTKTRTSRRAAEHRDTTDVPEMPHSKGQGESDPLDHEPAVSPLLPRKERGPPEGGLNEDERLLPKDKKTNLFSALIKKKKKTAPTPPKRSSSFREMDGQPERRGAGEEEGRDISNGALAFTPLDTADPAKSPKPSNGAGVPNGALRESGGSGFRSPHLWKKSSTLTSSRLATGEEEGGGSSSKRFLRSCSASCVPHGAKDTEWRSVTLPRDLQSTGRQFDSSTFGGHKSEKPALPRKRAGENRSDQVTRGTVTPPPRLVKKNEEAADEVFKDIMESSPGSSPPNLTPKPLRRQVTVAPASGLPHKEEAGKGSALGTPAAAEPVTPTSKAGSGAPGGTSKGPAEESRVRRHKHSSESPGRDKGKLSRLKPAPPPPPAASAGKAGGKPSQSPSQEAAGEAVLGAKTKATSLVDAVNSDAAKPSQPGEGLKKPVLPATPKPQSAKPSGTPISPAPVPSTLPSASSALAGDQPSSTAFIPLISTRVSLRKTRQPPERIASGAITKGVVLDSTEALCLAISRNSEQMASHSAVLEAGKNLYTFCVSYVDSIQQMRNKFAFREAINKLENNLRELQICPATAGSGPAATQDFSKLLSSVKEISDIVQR
How it was run: as §1

[6] = biological target: T3, CLK3 (Homo sapiens, UniProt P49761)
T3 construct: AssayQuant Technologies, Inc. (service laboratory)
How it was run: as §1

[7] = biological target: AKT1 (Homo sapiens, UniProt P31749)
Chain of AKT1 (P31749 whole entry): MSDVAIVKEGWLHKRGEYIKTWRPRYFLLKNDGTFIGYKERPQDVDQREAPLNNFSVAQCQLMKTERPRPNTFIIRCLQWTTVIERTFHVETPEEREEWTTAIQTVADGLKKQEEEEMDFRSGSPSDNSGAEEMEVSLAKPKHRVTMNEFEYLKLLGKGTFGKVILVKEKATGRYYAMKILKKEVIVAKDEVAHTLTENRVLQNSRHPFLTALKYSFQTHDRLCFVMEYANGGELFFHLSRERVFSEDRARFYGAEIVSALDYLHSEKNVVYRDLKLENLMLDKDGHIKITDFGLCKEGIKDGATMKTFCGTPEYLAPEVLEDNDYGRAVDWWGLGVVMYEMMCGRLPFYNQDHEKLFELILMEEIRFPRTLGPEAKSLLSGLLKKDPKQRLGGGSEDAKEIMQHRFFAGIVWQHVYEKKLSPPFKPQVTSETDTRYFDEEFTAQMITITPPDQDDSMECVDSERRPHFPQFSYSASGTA
How it was run: as §1

[8] = biological target: T4, TNK2/ACK (Homo sapiens, UniProt Q07912)
T4 construct: AssayQuant Technologies, Inc. (contract laboratory that ran the panel)
T4 sequence (Q07912 whole entry): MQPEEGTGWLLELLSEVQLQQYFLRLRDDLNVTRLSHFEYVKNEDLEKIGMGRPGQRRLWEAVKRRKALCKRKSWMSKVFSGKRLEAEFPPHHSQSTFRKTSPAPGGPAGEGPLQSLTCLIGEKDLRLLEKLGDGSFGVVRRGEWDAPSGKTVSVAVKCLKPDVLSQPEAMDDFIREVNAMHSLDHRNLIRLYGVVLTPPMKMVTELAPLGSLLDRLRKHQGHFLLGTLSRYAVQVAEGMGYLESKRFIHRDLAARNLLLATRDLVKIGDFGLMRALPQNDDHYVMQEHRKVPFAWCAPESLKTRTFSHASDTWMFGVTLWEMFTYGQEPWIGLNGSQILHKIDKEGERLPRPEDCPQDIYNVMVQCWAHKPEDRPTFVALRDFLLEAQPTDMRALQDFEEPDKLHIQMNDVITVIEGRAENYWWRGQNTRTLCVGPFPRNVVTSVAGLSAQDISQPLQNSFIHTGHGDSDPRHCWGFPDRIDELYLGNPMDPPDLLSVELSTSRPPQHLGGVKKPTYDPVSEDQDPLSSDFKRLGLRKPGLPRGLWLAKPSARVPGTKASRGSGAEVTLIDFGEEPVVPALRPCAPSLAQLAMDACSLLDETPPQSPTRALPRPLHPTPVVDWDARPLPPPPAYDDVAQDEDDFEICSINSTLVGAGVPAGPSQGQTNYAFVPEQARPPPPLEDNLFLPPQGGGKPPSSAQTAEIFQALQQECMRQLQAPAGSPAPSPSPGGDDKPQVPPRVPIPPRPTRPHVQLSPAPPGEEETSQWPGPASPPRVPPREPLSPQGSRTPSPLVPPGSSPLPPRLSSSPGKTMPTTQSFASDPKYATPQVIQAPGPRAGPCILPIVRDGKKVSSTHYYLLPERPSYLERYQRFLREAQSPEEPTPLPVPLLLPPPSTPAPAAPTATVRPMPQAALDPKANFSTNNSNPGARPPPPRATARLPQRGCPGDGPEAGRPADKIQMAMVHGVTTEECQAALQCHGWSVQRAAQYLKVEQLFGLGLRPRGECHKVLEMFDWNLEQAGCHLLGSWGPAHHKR
How it was run: as §1

Chain of EIF2AK4/GCN2 (Q9P2K8 whole entry): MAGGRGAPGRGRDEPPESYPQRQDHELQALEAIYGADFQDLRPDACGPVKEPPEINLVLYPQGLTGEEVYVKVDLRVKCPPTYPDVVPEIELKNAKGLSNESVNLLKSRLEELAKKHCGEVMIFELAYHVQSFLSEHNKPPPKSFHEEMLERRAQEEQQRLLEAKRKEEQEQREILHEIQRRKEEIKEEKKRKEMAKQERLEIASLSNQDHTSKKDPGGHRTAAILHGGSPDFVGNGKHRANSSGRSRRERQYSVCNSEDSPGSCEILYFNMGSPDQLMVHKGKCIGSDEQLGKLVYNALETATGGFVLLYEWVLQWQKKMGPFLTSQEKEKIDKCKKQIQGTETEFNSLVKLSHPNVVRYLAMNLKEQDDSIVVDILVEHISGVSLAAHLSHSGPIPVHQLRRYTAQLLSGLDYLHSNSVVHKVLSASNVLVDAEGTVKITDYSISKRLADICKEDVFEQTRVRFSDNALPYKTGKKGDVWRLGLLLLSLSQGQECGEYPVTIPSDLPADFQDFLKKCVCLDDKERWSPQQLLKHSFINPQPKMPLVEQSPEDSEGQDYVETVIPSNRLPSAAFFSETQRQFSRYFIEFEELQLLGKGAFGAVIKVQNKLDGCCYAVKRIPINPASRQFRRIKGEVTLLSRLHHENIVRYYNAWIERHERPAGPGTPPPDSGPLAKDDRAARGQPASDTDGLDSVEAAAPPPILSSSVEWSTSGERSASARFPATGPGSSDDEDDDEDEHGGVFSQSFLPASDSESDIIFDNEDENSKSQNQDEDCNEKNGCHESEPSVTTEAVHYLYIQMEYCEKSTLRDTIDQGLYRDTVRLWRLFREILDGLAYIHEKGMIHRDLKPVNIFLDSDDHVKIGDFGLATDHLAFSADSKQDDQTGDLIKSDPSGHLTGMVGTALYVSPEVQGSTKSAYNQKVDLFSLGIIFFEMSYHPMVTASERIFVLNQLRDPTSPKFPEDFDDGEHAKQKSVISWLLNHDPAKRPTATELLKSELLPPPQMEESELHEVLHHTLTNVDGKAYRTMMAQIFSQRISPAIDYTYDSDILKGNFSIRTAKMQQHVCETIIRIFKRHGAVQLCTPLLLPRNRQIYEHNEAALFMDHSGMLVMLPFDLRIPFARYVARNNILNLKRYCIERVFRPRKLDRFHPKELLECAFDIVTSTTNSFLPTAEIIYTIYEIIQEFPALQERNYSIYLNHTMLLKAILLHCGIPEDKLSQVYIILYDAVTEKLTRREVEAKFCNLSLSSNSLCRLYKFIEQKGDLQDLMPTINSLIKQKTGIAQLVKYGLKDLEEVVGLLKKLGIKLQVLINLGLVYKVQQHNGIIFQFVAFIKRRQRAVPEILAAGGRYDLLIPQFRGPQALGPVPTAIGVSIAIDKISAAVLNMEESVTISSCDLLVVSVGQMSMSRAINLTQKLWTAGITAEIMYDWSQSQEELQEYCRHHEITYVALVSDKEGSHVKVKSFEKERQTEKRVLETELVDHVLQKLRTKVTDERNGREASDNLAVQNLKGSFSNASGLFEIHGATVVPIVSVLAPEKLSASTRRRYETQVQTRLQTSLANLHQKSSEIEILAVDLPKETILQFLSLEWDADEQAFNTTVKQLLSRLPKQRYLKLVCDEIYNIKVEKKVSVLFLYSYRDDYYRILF

| SMILES | inhibition at 1 µM [1] [%] | inhibition at 1 µM [2] [%] | inhibition at 1 µM [3] [%] | inhibition at 1 µM [4] [%] | inhibition at 1 µM [5] [%] | inhibition at 1 µM [6] [%] | inhibition at 1 µM [7] [%] | inhibition at 1 µM [8] [%] |
| --- | --- | --- | --- | --- | --- | --- | --- | --- |
| C=CC(=O)N1CCCC(c2c(F)cc(C(N)=O)c3[nH]c4c(c23)CCCCC4)C1 (single isomer, unassigned) [Compound 5-6] | -20.4 | -1.6 | -2.8 | 6.7 | -14.6 | -29.3 | 20 | -8.3 |
| C=CC(=O)N1CCC[C@@H](c2c(F)cc(C(N)=O)c3[nH]c4c(c23)CCC4)C1 [Compound 10-2, (S)-8-(1-acryloylpiperidin-3-yl)-7-fluoro-1,2,3,4-tetrahydrocyclo-penta[b]indole-5-carboxamide] | 29.1 | 24.3 | -5.8 | -29.2 | 3.1 | -19.2 | -14.8 | 2 |
| C=CC(=O)N1CCC[C@@H](c2c(F)cc(C(N)=O)c3[nH]c4c(c23)CC2(CC4)CC2)C1 [Compound 6-2, (S)-5-(1-acryloylpiperidin-3-yl)-6-fluoro-1,2,4,9-tetrahydrospiro[carbazole-3,1′-cyclopropane]-8-carboxamide] | 25.9 | -1.9 | 0 | -49.1 | 2.5 | -0.1 | -17 | 13.4 |
